# Where a name gives a salt, the structure may show the parent alone.
# Legend:
# human MCH1 receptor = human MCH1 receptor (Homo sapiens, UniProt Q99705); test: Intracellular calcium response to MCH in COS-7 cells transfected with MCH1 (fluo-3, FLIPR): antagonist potency; type: cell-based; set-up: expressed in transfected cells; host or cells: COS-7; conditions: read-out: Kb (nM) hMCH1
# Description: MCH1 antagonist compounds were identified by their ability to inhibit the MCH-elicited response. […]. From the IC50 values, the antagonist potency (Kb)was derived using the Cheng-Prussof correction (Lazareno and Birdsall, 1993). […]
# human GALR1 receptor = target: T1, human GALR1 receptor (Homo sapiens, UniProt P47211); test: Binding affinity at the human GALR1 receptor; conditions: Table 3a; read-out: hGALR1 Ki
# T1 construct: expressed in transfected cells
# T1 sequence (P47211 1-349): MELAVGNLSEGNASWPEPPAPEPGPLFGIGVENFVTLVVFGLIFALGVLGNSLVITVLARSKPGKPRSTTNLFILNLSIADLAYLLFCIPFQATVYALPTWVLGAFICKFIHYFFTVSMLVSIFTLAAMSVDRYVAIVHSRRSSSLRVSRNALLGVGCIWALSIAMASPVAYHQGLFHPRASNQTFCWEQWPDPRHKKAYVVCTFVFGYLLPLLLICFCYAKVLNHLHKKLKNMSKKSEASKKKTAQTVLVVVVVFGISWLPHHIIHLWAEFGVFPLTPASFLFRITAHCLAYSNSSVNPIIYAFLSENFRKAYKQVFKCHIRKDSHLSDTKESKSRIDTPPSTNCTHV
# Description: (§1) The design of such compounds can be optimized by determining their binding affinity at the recombinant MCH1, NPY1, NPY2, Gal1, Gal2, Gal3, and 5HT2C receptors. The methods to obtain the cDNA of the receptor, express said receptors in heterologous systems, and carry out assays to determine binding affinity are described in the following publications: human NPY1 (Larhammar et al., 1992), human NPY5 (U.S. Pat. No. 5,602,024, the disclosure of which is hereby incorporated by reference in its entirety into this application), human Gall (Habert-Ortoli et al., 1994), human Gal2 (Smith et al., 1997), human Gal3 (Smith et al., 1998), and rat 5HT2C (Julius et al., 1988). Additionally, the compounds would optimally not bind at the following receptors due to possible side effects: human H1 histamine and human H2 histamine receptors; human alpha-1A adrenergic, human alpha-1D adrenergic, human alpha-2A adrenergic, human alpha-2B adrenergic, and human alpha-2C adrenergic receptors; human dopamine D1, D2, D3, D4, and D5 receptors; the β-adrenoceptor; and the human 5HT1A, human 5HT1B, human 5HT1D, human 5HT1E, human 5HT1F, human 5HT2A, rat 5HT2C, human 5HT4, human 5HT6, and human 5HT7 receptors.
# human GALR3 receptor = target: T2, human GALR3 receptor (Homo sapiens, UniProt O60755); test: Binding affinity at the human GALR3 receptor; conditions: Table 3a; read-out: hGALR3 Ki
# T2 construct: expressed in transfected cells
# T2 sequence (O60755 1-368): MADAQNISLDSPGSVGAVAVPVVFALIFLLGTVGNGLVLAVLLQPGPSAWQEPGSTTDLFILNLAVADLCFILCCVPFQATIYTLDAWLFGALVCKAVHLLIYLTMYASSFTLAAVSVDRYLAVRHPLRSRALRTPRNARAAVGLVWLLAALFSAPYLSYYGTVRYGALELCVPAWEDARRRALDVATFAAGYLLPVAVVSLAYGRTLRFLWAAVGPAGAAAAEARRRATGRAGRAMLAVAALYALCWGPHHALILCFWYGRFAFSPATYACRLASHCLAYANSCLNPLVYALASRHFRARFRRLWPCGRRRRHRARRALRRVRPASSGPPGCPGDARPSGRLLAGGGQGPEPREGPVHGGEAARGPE
# Description: as §1
# human GALR2 receptor = target: T3, human GALR2 receptor (Homo sapiens, UniProt O43603); test: Binding affinity at the human GALR2 receptor; conditions: Table 3a; read-out: hGALR2 Ki
# T3 construct: expressed in transfected cells
# T3 sequence (O43603 1-387): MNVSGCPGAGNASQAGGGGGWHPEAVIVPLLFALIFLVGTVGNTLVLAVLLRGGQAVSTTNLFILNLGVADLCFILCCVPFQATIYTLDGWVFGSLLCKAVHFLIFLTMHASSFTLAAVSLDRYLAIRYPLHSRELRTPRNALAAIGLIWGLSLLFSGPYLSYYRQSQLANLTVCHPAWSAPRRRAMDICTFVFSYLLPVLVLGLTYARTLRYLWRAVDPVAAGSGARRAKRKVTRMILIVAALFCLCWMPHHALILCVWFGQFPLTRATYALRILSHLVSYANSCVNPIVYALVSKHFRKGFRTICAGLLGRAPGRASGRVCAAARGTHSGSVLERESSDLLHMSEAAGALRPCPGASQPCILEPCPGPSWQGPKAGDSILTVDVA
# Description: as §1
# human NPY5 receptor = target: T4, human NPY5 receptor (Homo sapiens, UniProt Q15761); test: Binding affinity at the human NPY5 receptor; conditions: Table 3a; read-out: hNPY5 Ki
# T4 construct: expressed in transfected cells
# T4 sequence (Q15761 1-445): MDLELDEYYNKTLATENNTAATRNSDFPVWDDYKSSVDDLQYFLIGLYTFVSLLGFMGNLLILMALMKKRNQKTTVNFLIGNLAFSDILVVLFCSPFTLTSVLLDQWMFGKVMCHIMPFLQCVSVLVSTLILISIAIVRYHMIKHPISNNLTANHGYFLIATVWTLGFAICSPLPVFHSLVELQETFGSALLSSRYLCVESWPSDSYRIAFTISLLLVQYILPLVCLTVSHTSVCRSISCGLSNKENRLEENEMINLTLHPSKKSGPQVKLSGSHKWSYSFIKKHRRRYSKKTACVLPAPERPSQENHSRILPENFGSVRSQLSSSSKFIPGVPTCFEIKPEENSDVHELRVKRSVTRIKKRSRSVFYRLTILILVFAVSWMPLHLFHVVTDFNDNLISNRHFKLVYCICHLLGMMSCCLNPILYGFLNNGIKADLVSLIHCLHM
# Description: as §1
# rat 5HT2C receptor = target: T5, rat 5HT2C receptor (Rattus norvegicus, UniProt P08909); test: Binding affinity at the rat 5HT2C receptor; conditions: Table 3a; read-out: r5HT2C Ki
# T5 construct: expressed in transfected cells
# T5 sequence (P08909 33-460): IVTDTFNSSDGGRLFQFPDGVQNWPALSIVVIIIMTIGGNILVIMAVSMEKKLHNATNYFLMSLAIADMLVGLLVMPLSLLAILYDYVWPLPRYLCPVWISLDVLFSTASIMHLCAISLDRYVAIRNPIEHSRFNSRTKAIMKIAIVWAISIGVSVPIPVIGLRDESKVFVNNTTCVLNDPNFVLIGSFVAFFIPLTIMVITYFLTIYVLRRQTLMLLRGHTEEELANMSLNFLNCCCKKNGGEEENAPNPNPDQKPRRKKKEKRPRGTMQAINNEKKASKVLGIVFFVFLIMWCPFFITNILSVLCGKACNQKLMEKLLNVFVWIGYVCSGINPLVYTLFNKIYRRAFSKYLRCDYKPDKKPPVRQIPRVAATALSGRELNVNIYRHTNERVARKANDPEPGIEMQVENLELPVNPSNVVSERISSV
# Description: as §1
# Other 5HT Receptors: Other serotonin receptor binding assays were performed according to published methods: rat 5HT2C receptor (Julius et al., 1988); and 5HT6 (Monsma, et al., 1993). The binding assays using the 5HT4 receptor were performed according to the procedures described in U.S. Pat. No. 5,766,879, the disclosure of which is hereby incorporated by reference in its entirety into this application.
# human NPY1 receptor = target: T6, human NPY1 receptor (Homo sapiens, UniProt P25929); test: Binding affinity at the human NPY1 receptor; conditions: Table 3a; read-out: hMPY1 Ki
# T6 construct: expressed in transfected cells
# T6 sequence (P25929 1-384): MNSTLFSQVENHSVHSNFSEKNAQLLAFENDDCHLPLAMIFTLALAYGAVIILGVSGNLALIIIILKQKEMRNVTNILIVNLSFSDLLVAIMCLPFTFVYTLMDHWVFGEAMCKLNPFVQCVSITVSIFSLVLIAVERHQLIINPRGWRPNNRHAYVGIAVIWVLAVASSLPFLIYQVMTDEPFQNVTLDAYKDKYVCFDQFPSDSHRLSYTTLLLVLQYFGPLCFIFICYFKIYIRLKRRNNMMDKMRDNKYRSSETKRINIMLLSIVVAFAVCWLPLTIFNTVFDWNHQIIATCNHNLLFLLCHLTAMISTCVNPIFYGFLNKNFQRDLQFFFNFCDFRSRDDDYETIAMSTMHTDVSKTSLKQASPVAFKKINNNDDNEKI
# Description: as §1
# Sequence of human MCH1 receptor (Q99705 whole entry): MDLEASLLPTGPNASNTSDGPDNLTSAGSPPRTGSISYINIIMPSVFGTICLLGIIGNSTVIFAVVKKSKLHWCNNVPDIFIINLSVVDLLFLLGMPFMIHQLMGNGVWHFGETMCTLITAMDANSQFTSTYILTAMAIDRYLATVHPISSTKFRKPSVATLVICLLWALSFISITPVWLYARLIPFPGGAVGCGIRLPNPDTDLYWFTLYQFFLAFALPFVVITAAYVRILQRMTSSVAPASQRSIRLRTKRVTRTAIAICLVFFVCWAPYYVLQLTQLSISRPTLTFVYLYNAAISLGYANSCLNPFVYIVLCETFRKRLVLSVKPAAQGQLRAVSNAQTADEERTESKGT
Compound,Kb (human MCH1 receptor),Ki (human GALR1 receptor),Ki (human GALR3 receptor),Ki (human GALR2 receptor),Ki (human NPY5 receptor),Ki (rat 5HT2C receptor),Ki (human NPY1 receptor)
"CCn1c(=O)n(C2CCN(CCCNC(=O)N3C(=O)NC(C)=C(C(=O)OC)C3c3ccc(F)c(F)c3)CC2)c2ccccc21 (single isomer, unassigned; (+)) [Example 7, (+)-1,2,3,6-TETRAHYDRO-1-{N-[4-(N′-ETHYL)-N-BENZIMIDAZOLYL-PIPERIDIN-1YL]PROPYL}CARBOXAMIDO-4-METHYL-6-(3,4-DIFLUOROPHENYL)-2-OXOPYRIMIDINE HYDROCHLORIDE]",41 nM,–,–,–,–,–,–
"CC(=O)C1=C(C)NC(=O)N(C(=O)NCCCN2CCC(c3ccc(F)cc3)CC2)C1c1cc(F)c(F)c(F)c1 (single isomer, unassigned; (+)) [Example 12, (+)-1,2,3,6-TETRA HYDRO-1-{N-[4-(4-FLUOROPHENYL)-PIPERIDINE-1-YL]-PROPYL]CARBOXAMIDO-5-ACETYL-2-OXO-6-(3,4,5-TRI FLUORO PHENYL)-4-METHYL PYRIMIDINE HYDROCHLORIDE]",29 nM,–,–,–,–,–,–
"COCC1=C(C(=O)OC)C(c2ccc(F)c(F)c2)N(C(=O)NCCCN2CCC(c3cc(F)ccc3OC)CC2)C(=O)N1 (single isomer, unassigned; (+)) [Example 15]",289 nM,–,–,–,–,–,–
"CCC1=C(C(N)=O)C(c2ccc(F)c(F)c2)N(C(=O)NCCCN2CCC3(CC2)OCc2ccccc23)C(=O)N1 (single isomer, unassigned; (+)) [Example 22, (+)-1,2,3,6-TETRAHYDRO-1-{N-[4-(BENZO-4′,5′(H)FURAN)PIPERIDIN-1-YL]PROPYL}CARBOXAMIDO-4-ETHYL-6-(3,4-DIFLUOROPHENYL)-2-OXO-PYRIMIDINE-5-CARBOXAMIDE HYDROCHLORIDE]",40 nM,–,–,–,–,–,–
"COCC1=C(C(=O)OC)C(c2ccc(F)c(F)c2)N(C(=O)NCCCN2CCC(c3cc(F)c(F)c(F)c3)CC2)C(=O)N1 (single isomer, unassigned; (+)) [Example 33, (+)-1,2,3,6-TETRAHYDRO-1-{N-[4-(3,4,5-TRIFLUORO)-PHENYL-PIPERIDIN-1-YL]PROPYL}CARBOXAMIDO-4-METHOXYMETHYL-6-(3,4-DIFLUOROPHENYL)-2-OXOPYRIMIDINE-5-CARBOXYLIC ACID METHYL ESTER]",12 nM,–,–,–,–,–,–
CCN1c2ccc(/C=C3\SC(=S)NC3=O)cc2C(C)=CC1(C)C [Example 25],–,> 50 µM,> 50 µM,> 50 µM,> 50 µM,41 µM,–
"CN1CN(c2ccccc2)C2(CCN(CCCC(=O)c3ccc(F)cc3)CC2)C1=O [Example 30, N-METHYL-8-[4-(4-FLUOROPHENYL)-4-OXOBUTYL]-1-PHENYL-1,3,8-TRI-[4.5]DECAN-4-ONE]",–,> 50 µM,> 50 µM,> 50 µM,> 50 µM,8.86 µM,> 50 µM

# Other lines, results leading:
Kb (human MCH1 receptor),Ki (human GALR1 receptor),Ki (human GALR3 receptor),Ki (human GALR2 receptor),Ki (human NPY5 receptor),Ki (rat 5HT2C receptor),Ki (human NPY1 receptor),Compound
373 nM,–,–,–,–,–,–,"COCC1=C(C(=O)OC)C(c2ccc(F)c(F)c2)N(C(=O)NCCCN2CCC(c3ccccn3)CC2)C(=O)N1 (single isomer, unassigned; (+)) [Example 17, (+)-6-(3,4-DIFLUOROPHENYL)-1-{N-[4-(2-PYRIDYL)PIPERIDIN-1-YL]-PROPYL}CARBOXAMIDO-5-METHOXYCARBONYL-4-METHOXYMETHYL-2-OXO-1,2,3,6-TETRAHYDROPYRIMIDINE DIHYDROCHLORIDE]"
–,> 50 µM,> 50 µM,> 50 µM,> 50 µM,–,> 50 µM,"Fc1ccc(C(c2ccc(F)cc2)N2CCN(C/C=C/c3ccccc3)CC2)cc1 [Example 26, 1-[BIS(4-FLUOROPHENYL)METHYL]-4-(3-PHENYL-2-PROPENYL)PIPERAZINE]"
–,> 50 µM,> 50 µM,> 50 µM,> 50 µM,> 50 µM,> 50 µM,Cc1cc(O)cc(O)c1/C=N/c1ccc(-c2cn3ccccc3n2)cc1 [Example 27]
–,> 50 µM,> 50 µM,> 50 µM,> 50 µM,34.1 µM,–,"O=C(CCCN1CCC(NC(=O)c2ccccc2)CC1)c1ccc(Cl)cc1 [Example 28, [3-(4-CHLOROBENZOYL)]PROPYL-4-BENZAMIDOPIPERIDINE]"

# — patent US20040038855A1 (priority 1999, published 2004)
